Laboratory results as given in ChEMBL document CHEMBL1125394, “Analgesic dipeptide derivatives. 7. 3,7-Diamino-2-hydroxyheptanoic acid (DAHHA) containing dipeptide analogues of the analgesic compound H-Lys-Trp(Nps)-OMe” (J Med Chem, 1992).
Residues, ends and D or L forms follow the SMILES beside them.

How the values were obtained:
Mus musculus [1] = species on record: Mus musculus; experiment: Analgesic response measured as percentage change in reaction time (dose 1 ug given intracervically) after 60 min in mice; assay type: functional
Aminopeptidase B [2] = target: T1, Aminopeptidase B (Rattus norvegicus, UniProt O09175); experiment: (§1) Compound was evaluated for its inhibitory potency against purified membrane bound rat brain Aminopeptidase B using L-lysine-beta napthylamide as substrate; assay type: functional
T1 sequence (O09175 whole entry): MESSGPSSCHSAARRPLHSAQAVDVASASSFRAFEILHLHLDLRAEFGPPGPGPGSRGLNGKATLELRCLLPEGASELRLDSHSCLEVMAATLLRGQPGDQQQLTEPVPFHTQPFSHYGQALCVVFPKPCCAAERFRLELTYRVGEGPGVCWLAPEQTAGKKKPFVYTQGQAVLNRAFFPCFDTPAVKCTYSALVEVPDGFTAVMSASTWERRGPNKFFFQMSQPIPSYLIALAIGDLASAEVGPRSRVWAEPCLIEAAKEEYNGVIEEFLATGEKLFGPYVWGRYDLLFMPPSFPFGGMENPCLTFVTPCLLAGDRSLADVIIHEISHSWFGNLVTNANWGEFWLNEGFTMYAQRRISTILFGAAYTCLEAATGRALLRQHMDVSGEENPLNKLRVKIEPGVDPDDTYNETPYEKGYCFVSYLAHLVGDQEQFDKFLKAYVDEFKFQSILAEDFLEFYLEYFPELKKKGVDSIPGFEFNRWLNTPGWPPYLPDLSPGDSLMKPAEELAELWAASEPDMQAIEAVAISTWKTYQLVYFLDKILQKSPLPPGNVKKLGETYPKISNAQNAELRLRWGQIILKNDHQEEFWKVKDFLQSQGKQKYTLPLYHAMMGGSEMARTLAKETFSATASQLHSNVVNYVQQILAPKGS

Mus musculus [3] = species on record: Mus musculus; experiment: Analgesic response measured as percentage change in reaction time (dose 1 ug given intracervically) after 5 min in mice; assay type: functional
Mus musculus [4] = species on record: Mus musculus; experiment: Analgesic response measured as percentage change in reaction time (dose 0.5 ug given intracervically) after 60 min in mice; assay type: functional
[5] = (§2) Compound was evaluated for its inhibitory potency against purified membrane bound rat brain APs; assay type: functional
Mus musculus [6] = species on record: Mus musculus; experiment: Analgesic response measured as percentage change in reaction time (dose 0.5 ug given intracervically) after 30 min in mice; assay type: functional
Mus musculus [7] = species on record: Mus musculus; experiment: Analgesic response measured as percentage change in reaction time (dose 1 ug given intracervically) after 30 min in mice; assay type: functional
Mus musculus [8] = species on record: Mus musculus; experiment: Analgesic response measured as percentage change in reaction time (dose 0.5 ug given intracervically) after 5 min in mice; assay type: functional
Aminopeptidase N [9] = target: T2, Aminopeptidase N (Rattus norvegicus, UniProt P15684); experiment: (§3) Compound was evaluated for its inhibitory potency against purified membrane bound rat brain Aminopeptidase M using [3H]Leu-enkephalin as substrate; assay type: functional
T2 sequence (P15684 whole entry): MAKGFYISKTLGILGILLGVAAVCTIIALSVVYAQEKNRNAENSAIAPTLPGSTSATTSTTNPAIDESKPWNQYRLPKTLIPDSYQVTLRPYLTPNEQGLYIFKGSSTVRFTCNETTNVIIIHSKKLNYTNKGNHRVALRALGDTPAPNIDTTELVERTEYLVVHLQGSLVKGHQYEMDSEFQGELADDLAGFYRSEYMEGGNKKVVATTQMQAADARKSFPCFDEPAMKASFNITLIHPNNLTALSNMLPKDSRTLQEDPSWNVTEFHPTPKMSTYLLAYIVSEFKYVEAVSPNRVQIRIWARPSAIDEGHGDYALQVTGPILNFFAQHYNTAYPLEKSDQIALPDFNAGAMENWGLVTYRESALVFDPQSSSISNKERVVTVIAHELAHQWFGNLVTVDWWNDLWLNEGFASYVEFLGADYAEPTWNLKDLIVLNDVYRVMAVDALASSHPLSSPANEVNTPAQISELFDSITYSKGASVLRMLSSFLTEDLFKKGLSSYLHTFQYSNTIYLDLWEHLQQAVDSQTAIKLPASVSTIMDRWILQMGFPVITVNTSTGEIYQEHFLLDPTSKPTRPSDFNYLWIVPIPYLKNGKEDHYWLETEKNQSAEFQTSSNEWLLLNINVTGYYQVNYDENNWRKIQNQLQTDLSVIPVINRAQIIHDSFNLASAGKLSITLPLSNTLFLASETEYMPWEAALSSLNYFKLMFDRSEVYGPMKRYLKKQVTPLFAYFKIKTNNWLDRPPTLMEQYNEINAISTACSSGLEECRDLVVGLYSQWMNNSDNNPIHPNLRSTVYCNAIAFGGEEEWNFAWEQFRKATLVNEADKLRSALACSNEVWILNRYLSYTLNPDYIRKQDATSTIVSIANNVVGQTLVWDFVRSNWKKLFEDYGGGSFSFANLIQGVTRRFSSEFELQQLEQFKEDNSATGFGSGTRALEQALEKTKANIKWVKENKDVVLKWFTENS

Mus musculus [10] = species on record: Mus musculus; experiment: Analgesic response measured as percentage change in reaction time (dose 5 ug given intracervically) after 5 min in mice; assay type: functional
Mus musculus [11] = species on record: Mus musculus; experiment: Analgesic response measured as percentage change in reaction time (dose 5 ug given intracervically) after 30 min in mice; assay type: functional
Mus musculus [12] = species on record: Mus musculus; experiment: Analgesic response measured as percentage change in reaction time (dose given intracervically) after 60 min in mice; assay type: functional
Aminopeptidase B [13] = target: T1, Aminopeptidase B; experiment: Compound was evaluated for its inhibitory potency against purified membrane bound rat brain Aminopeptidase B (AP-B) using L-lysine-beta napthylamide as substrate
Mus musculus [14] = species on record: Mus musculus; experiment: Analgesic response measured as percentage change in reaction time (dose 5 ug given intracervically) after 60 min in mice; assay type: functional
Aminopeptidase N [15] = target: T2, Aminopeptidase N; experiment: Compound was evaluated for its inhibitory potency against purified membrane bound rat brain Aminopeptidase M (AP-M) using [3H]Leu-enkephalin as substrate
Mus musculus [16] = species on record: Mus musculus; experiment: Analgesic response measured as percentage change in reaction time (dose 10 ug given intracervically) after 5 min in mice; assay type: functional
Mus musculus [17] = species on record: Mus musculus; experiment: Analgesic response measured as percentage change in reaction time (dose 10 ug given intracervically) after 60 min in mice; Signs of strong neurotoxicity; assay type: functional, organism-based
Mus musculus [18] = species on record: Mus musculus; experiment: Analgesic response measured as percentage change in reaction time ((dose 1 ug given intracervically) after 60 min in mice; assay type: functional
Mus musculus [19] = species on record: Mus musculus; experiment: Analgesic response measured as percentage change in reaction time (dose 10 ug given intracervically) after 30 min in mice; Signs of strong neurotoxicity; assay type: functional, organism-based
Aminopeptidase B [20] = target: T1, Aminopeptidase B; experiment: Inhibitory potency against purified membrane bound rat brain Aminopeptidase B using L-lysine-beta napthylamide as substrate; assay type: functional
Aminopeptidase N [21] = target: T2, Aminopeptidase N; experiment: Inhibitory potency against purified membrane bound rat brain Aminopeptidase M using [3H]Leu-enkephalin as substrate; assay type: functional
Aminopeptidase B [22] = target: T1, Aminopeptidase B; experiment: Inhibitory potency against purified membrane bound rat brain Aminopeptidase B (AP-B) using L-lysine-beta napthylamide as substrate
Aminopeptidase N [23] = target: T2, Aminopeptidase N; experiment: Inhibitory potency against purified membrane bound rat brain Aminopeptidase M (AP-M) using [3H]Leu-enkephalin as substrate
Aminopeptidase N [24] = target: T2, Aminopeptidase N; experiment: as §3
Aminopeptidase B [25] = target: T1, Aminopeptidase B; experiment: as §1
Mus musculus [26] = species on record: Mus musculus; experiment: Analgesic response measured as percentage change in reaction time (dose 25 ug given intracervically) after 30 min in mice; assay type: functional
Mus musculus [27] = species on record: Mus musculus; experiment: Analgesic response measured as percentage change in reaction time (dose 100 ug given intracervically) after 60 min in mice; assay type: functional
Mus musculus [28] = species on record: Mus musculus; experiment: Analgesic response measured as percentage change in reaction time (dose 100 ug given intracervically) after 30 min in mice; assay type: functional
Mus musculus [29] = species on record: Mus musculus; experiment: Analgesic response measured as percentage change in reaction time (dose 100 ug given intracervically) after 5 min in mice; assay type: functional
[30] = as §2; assay type: tissue-based
Mus musculus [31] = species on record: Mus musculus; experiment: Analgesic response measured as percentage change in reaction time (dose 25 ug given intracervically) after 5 min in mice; assay type: functional
Mus musculus [32] = species on record: Mus musculus; experiment: Analgesic response measured as percentage change in reaction time (dose 25 ug given intracervically) after 60 min in mice; assay type: functional

SMILES | IC50 (Aminopeptidase B [2]) [µM] | Change (Mus musculus [3]) [%] | Change (Mus musculus [7]) [%] | IC50 (Aminopeptidase N [9]) [µM] | Change (Mus musculus [10]) [%] | Change (Mus musculus [11]) [%] | IC50 (Aminopeptidase B [13]) [µM] | Change (Mus musculus [14]) [%] | IC50 (Aminopeptidase N [15]) [µM] | also measured
COC(=O)[C@H](Cc1c(Sc2ccccc2[N+](=O)[O-])[nH]c2ccccc12)NC(=O)[C@@H](N)CCCCN | 400 | <130 | <60 | 261 | – | – | – | – | – | Change (Mus musculus [1]): 35%; Change (Mus musculus [4]): 20%; IC50 [5]: 18 µM; Change (Mus musculus [6]): <40%; Change (Mus musculus [8]): <80%
COC(=O)[C@H](Cc1c[nH]c2ccccc12)NC(=O)[C@@H](O)[C@H](N)CCCCN.Cl.Cl | > 1000 | – | – | 10.2 | <60 | 17 | – | – | – | Change (Mus musculus [12]): 14%; IC50 [5]: 0.21 µM
COC(=O)[C@@H](Cc1c(Sc2ccccc2[N+](=O)[O-])[nH]c2ccccc12)NC(=O)C(O)[C@H](N)CCCCN (some centres undefined) | – | 19 | 13 | – | 80 | 56 | 486 | 37 | 91.2 | Change (Mus musculus [1]): -2%
COC(=O)[C@@H](Cc1c(Sc2ccccc2[N+](=O)[O-])[nH]c2ccccc12)NC(=O)[C@H](O)[C@@H](N)CCCCN | – | 19 | 21 | – | 59 | 75 | 982 | 55 | 225 | Change (Mus musculus [1]): -1%
COC(=O)[C@H](Cc1c[nH]c2ccccc12)NC(=O)[C@H](O)[C@H](N)CCCCN | > 1000 | – | – | 502 | – | – | – | – | – | IC50 [5]: 45.5 µM
COC(=O)[C@H](Cc1c[nH]c2ccccc12)NC(=O)[C@@H](O)[C@@H](N)CCCCN.COC(=O)[C@H](Cc1c[nH]c2ccccc12)NC(=O)[C@H](O)[C@@H](N)CCCCN | 500 | – | – | > 1000 | 26 | 19 | – | -4 | – | –
COC(=O)[C@H](Cc1c(Sc2ccccc2[N+](=O)[O-])[nH]c2ccccc12)NC(=O)[C@@H](O)[C@H](N)CCCCN | – | 124 | 63 | – | 146 | 80 | 101 | 74 | 7 | Change (Mus musculus [16]): 243%; Change (Mus musculus [17]): Signs of strong neurotoxicity; Change (Mus musculus [18]): 47%; Change (Mus musculus [19]): Signs of strong neurotoxicity
COC(=O)[C@H](CC(C)C)NC(=O)[C@@H](O)[C@@H](N)CCCCN.COC(=O)[C@H](CC(C)C)NC(=O)[C@H](O)[C@@H](N)CCCCN | – | – | – | – | -1 | 10 | 500 | 15 | > 1000 | –
COC(=O)[C@@H](Cc1c[nH]c2ccccc12)NC(=O)[C@@H](O)[C@H](N)CCCCN.COC(=O)[C@@H](Cc1c[nH]c2ccccc12)NC(=O)[C@H](O)[C@H](N)CCCCN | – | – | – | – | 10 | 1 | – | 5 | – | IC50 (Aminopeptidase B [20]): > 1000 µM; IC50 (Aminopeptidase N [21]): 826 µM
COC(=O)[C@@H](Cc1c[nH]c2ccccc12)NC(=O)[C@H](O)[C@@H](N)CCCCN | > 1000 | – | – | > 1000 | 22 | -1 | – | 2 | – | –
NCCCC[C@H](N)C(=O)N[C@@H](Cc1c[nH]c2ccccc12)C(=O)O (H-Lys-Trp-OH) | – | – | – | – | – | – | > 1000 | – | > 1000 | –
COC(=O)[C@H](Cc1c(Sc2ccccc2[N+](=O)[O-])[nH]c2ccccc12)NC(=O)C(O)[C@@H](N)CCCCN (some centres undefined) | – | 25 | 15 | – | 75 | 64 | – | 43 | – | Change (Mus musculus [1]): -8%; IC50 (Aminopeptidase B [22]): 583 µM; IC50 (Aminopeptidase N [23]): 852 µM
COC(=O)[C@@H](Cc1c[nH]c2ccccc12)NC(=O)[C@@H](O)[C@@H](N)CCCCN | > 1000 | – | – | > 1000 | -1 | 10 | – | 15 | – | –
COC(=O)[C@H](CC(C)C)NC(=O)[C@@H](O)[C@H](N)CCCCN | – | – | – | – | <62 | 21 | – | 23 | – | IC50 (Aminopeptidase N [24]): 201 µM; IC50 (Aminopeptidase B [25]): 481 µM
CC(C)C[C@H](NC(=O)[C@@H](O)[C@H](N)Cc1ccccc1)C(=O)O [UBENIMEX] | – | – | – | – | – | – | – | – | – | Change (Mus musculus [26]): 3%; IC50 (Aminopeptidase N [24]): 19.4 µM; Change (Mus musculus [27]): 59%; IC50 (Aminopeptidase B [25]): 6 µM; Change (Mus musculus [28]): 41%; Change (Mus musculus [29]): 11%; IC50 [30]: 0.3 µM; Change (Mus musculus [31]): 26%; Change (Mus musculus [32]): -3%
